Key:
[1] = target: Chromatin remodeling regulator CECR2 (Homo sapiens, UniProt Q9BXF3); test: Displacement of biotinylated small-molecule ligand from recombinant His-tagged CECR2 (unknown origin) measured after 10 mins by TR-FRET assay
[2] = tested on: NCI-H226; test: Cytotoxicity against human NCI-H226 cells measured after 8 days; type: functional, cell-based; details: NCI-H226, 192 h
[3] = tested on: Daudi; test: Cytotoxicity against human Daudi cells measured after 8 days; type: functional, cell-based; details: 192 h
[4] = tested on: NAMALVA; test: Cytotoxicity against human NAMALVA cells measured after 8 days; type: functional, cell-based; details: 192 h
[5] = tested on: NCI-H1437; test: Cytotoxicity against human NCI-H1437 cells measured after 8 days; type: functional, cell-based; details: NCI-H1437, 192 h
[6] = tested on: NCI-H1299; test: Cytotoxicity against human NCI-H1299 cells measured after 8 days; type: functional, cell-based; details: NCI-H1299, 192 h
[7] = tested on: K562; test: Cytotoxicity against human K562 cells measured after 8 days; type: functional, cell-based; details: K562, 192 h
[8] = Cytotoxicity against human NCI-H2023 cells measured after 8 days; type: functional, cell-based; details: NCI-H2023, 192 h
[9] = tested on: NCI-H23; test: Cytotoxicity against human NCI-H23 cells measured after 8 days; type: functional, cell-based; details: NCI-H23, 192 h
[10] = tested on: NCI-H292; test: Cytotoxicity against human NCI-H292 cells measured after 8 days; type: functional, cell-based; details: NCI-H292, 192 h
[11] = tested on: NCI-H460; test: Cytotoxicity against human NCI-H460 cells measured after 8 days; type: functional, cell-based; details: NCI-H460, 192 h
[12] = tested on: SK-MES-1; test: Cytotoxicity against human SK-MES-1 cells measured after 8 days; type: functional, cell-based; details: SK-MES-1, 192 h
[13] = tested on: HCC70; test: Cytotoxicity against human HCC70 cells measured after 8 days; type: functional, cell-based; details: HCC70, 192 h
[14] = Cytotoxicity against human KPL-4 cells measured after 8 days; type: functional, cell-based; details: KPL4, 192 h
[15] = tested on: LS-1034; test: Cytotoxicity against human LS1034 cells measured after 8 days; type: functional, cell-based; details: LS-1034, 192 h
[16] = Cytotoxicity against human COLO 206F cells measured after 8 days; type: functional, cell-based; details: 192 h
[17] = tested on: COLO-741; test: Cytotoxicity against human COLO-741 cells measured after 8 days; type: functional, cell-based; details: COLO-741, 192 h
[18] = Cytotoxicity against human LS174T-HM7 cells measured after 8 days; type: functional, cell-based; details: LS174T-HM7, 192 h
[19] = tested on: LoVo; test: Cytotoxicity against human LoVo cells measured after 8 days; type: functional, cell-based; details: 192 h
[20] = tested on: MKN-45; test: Cytotoxicity against human MKN-45 cells measured after 8 days; type: functional, cell-based; details: MKN-45, 192 h
[21] = Cytotoxicity against human OCUM-1 cells measured after 8 days; type: functional, cell-based; details: OCUM1, 192 h
[22] = tested on: BEN; test: Cytotoxicity against human BEN cells measured after 8 days; type: functional, cell-based; details: 192 h
[23] = tested on: CAL-12T; test: Cytotoxicity against human CAL-12T cells measured after 8 days; type: functional, cell-based; details: 192 h
[24] = tested on: HCC515; test: Cytotoxicity against human HCC515 cells measured after 8 days; type: functional, cell-based; details: HCC515, 192 h
[25] = tested on: HOP-92; test: Cytotoxicity against human HOP-92 cells measured after 8 days; type: functional, cell-based; details: HOP-92, 192 h
[26] = target: Histone acetyltransferase p300 (Homo sapiens, UniProt Q09472); test: Binding affinity to human partial length EP300 (A1040 to G1161 residues) expressed in bacterial expression system by BROMOscan assay
[27] = target: Histone acetyltransferase KAT2A (Homo sapiens, UniProt Q92830); test: Binding affinity to human partial length GCN5L2 (E726 to K837 residues) expressed in bacterial expression system by BROMOscan assay
[28] = target: Histone acetyltransferase KAT2B (Homo sapiens, UniProt Q92831); test: Binding affinity to human partial length PCAF (G715 to D831 residues) expressed in bacterial expression system by BROMOscan assay
[29] = target: T1, Ephrin type-A receptor 1 (Homo sapiens) (UniProt P21709); test: Inhibition of EphA1 (unknown origin) at 1 uM relative to control
T1 sequence (whole entry): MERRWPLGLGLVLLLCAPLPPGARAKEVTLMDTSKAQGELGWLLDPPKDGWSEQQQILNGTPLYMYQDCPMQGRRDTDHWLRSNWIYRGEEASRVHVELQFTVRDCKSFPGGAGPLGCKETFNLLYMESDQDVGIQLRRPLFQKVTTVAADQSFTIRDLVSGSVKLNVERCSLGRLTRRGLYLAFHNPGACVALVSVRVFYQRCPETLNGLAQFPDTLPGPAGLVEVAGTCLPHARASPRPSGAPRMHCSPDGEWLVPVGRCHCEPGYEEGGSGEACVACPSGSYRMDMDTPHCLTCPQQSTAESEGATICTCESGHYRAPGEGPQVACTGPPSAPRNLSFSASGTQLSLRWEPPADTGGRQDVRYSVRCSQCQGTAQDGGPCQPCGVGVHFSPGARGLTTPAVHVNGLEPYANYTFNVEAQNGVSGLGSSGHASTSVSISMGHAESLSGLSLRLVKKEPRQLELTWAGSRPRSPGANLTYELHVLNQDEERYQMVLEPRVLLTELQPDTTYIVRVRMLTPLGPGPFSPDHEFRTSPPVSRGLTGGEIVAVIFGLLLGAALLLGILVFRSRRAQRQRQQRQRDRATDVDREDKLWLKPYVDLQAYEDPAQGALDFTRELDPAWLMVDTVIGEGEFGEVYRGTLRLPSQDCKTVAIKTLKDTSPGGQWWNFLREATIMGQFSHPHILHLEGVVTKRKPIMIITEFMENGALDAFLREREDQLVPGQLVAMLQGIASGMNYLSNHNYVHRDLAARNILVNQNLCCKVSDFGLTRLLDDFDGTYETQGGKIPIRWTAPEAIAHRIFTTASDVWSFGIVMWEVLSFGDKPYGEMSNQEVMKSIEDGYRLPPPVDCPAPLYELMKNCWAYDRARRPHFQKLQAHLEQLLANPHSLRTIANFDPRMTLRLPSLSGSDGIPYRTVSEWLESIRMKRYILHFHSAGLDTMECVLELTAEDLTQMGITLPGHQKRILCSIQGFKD

[30] = target: Tyrosine-protein kinase Lck (Homo sapiens) (UniProt P06239); test: Inhibition of LCK (unknown origin) at 1 uM relative to control
[31] = target: Mitogen-activated protein kinase 14 (Homo sapiens) (UniProt Q16539); test: Inhibition of p38alpha (unknown origin) at 1 uM relative to control
[32] = target: Adrenergic receptor alpha-2 (Rattus norvegicus) (UniProt P22086+P19328+P22909); test: Displacement of [3H]-RX 821002 from rat alpha2 adrenoceptor at 10 uM after 60 mins by scintillation counting analysis relative to control; type: protein assay
[33] = target: Kappa-type opioid receptor (Homo sapiens) (UniProt P41145); test: Displacement of [3H]U69593 from human kappa receptor at 10 uM after 60 mins by scintillation counting analysis relative to control
[34] = target: Mu-type opioid receptor (Homo sapiens) (UniProt P35372); test: Displacement of [3H]DAMGO from human recombinant mu receptor at 10 uM after 120 mins by scintillation counting analysis relative to control
Mu-type opioid receptor (Homo sapiens), sequence (P35372 whole entry): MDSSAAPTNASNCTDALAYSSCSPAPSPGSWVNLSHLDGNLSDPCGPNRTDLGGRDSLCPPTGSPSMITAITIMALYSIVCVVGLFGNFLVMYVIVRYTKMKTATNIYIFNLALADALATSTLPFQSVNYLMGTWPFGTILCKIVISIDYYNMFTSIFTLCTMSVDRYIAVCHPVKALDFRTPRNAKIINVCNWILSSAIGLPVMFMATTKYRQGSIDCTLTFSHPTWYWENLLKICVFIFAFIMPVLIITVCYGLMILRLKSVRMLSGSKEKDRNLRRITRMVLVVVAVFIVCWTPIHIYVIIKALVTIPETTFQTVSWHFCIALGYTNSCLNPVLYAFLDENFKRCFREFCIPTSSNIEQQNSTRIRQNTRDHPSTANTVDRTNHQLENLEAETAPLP

Histone acetyltransferase KAT2A, sequence (Q92830 whole entry, the tested form may be a part): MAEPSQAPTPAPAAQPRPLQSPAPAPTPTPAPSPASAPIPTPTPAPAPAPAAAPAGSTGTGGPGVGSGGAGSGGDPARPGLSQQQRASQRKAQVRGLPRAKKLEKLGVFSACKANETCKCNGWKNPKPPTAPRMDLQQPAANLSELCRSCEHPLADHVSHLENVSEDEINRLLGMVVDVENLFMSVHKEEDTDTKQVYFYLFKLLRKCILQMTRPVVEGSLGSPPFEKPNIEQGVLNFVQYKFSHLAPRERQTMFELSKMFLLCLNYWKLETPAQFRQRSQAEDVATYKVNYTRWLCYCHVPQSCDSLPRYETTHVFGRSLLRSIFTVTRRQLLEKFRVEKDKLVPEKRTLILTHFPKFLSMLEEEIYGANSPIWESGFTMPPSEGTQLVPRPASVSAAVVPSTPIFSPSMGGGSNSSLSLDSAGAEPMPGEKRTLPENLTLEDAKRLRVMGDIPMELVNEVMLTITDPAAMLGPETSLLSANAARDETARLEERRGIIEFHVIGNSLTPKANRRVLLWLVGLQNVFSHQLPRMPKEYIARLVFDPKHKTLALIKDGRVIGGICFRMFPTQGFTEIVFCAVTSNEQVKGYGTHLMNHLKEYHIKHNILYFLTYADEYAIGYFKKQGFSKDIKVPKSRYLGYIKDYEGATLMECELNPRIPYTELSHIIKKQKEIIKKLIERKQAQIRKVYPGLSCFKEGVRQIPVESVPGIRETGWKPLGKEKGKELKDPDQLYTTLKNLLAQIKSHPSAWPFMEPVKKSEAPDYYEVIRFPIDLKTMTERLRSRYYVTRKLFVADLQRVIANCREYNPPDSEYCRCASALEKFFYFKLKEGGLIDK
Mitogen-activated protein kinase 14 (Homo sapiens), sequence (Q16539 whole entry): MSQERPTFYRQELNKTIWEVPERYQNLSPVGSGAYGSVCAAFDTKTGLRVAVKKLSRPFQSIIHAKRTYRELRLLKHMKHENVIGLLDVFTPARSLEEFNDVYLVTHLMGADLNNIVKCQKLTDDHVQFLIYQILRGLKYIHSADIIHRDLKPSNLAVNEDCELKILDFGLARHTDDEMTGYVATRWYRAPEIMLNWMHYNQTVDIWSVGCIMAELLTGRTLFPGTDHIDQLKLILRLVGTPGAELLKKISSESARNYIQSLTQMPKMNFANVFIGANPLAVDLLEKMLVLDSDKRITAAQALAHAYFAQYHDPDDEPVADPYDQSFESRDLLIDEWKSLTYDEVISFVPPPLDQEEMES
Histone acetyltransferase KAT2B, sequence (Q92831 whole entry, the tested form may be a part): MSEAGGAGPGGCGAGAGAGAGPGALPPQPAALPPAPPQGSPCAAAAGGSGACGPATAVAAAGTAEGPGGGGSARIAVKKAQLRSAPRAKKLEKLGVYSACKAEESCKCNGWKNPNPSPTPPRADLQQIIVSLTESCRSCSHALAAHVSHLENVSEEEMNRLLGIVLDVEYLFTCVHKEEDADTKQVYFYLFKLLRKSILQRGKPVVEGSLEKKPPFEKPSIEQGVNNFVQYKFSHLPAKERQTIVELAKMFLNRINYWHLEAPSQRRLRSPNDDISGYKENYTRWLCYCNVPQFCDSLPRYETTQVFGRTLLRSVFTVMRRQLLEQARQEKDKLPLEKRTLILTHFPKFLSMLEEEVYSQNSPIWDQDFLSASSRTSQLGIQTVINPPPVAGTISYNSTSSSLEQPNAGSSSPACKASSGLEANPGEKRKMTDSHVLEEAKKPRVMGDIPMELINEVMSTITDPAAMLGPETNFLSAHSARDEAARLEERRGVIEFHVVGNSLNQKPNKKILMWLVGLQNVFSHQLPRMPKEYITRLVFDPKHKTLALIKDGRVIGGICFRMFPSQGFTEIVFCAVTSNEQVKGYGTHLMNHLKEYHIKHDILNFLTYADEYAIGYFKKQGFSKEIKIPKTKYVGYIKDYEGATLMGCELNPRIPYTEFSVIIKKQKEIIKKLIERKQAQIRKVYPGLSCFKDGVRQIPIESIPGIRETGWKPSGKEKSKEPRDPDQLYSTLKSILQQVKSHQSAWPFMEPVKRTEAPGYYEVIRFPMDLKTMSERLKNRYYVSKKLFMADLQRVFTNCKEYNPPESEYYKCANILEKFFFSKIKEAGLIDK
Tyrosine-protein kinase Lck (Homo sapiens), sequence (P06239 2-509 limits assumed): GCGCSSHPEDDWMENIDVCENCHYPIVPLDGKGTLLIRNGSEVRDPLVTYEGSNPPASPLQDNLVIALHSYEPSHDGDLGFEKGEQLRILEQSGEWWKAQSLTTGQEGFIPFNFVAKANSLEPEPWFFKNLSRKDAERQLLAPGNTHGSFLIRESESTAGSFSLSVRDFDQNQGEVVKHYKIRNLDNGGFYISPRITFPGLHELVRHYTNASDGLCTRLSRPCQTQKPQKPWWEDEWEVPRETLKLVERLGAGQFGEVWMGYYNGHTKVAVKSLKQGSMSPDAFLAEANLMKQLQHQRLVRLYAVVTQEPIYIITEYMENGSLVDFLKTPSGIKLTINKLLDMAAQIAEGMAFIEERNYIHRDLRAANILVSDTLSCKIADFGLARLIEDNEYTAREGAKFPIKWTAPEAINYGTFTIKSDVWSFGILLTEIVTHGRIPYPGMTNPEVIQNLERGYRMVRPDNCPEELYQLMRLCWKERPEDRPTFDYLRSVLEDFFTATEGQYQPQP
Kappa-type opioid receptor (Homo sapiens), sequence (P41145 whole entry): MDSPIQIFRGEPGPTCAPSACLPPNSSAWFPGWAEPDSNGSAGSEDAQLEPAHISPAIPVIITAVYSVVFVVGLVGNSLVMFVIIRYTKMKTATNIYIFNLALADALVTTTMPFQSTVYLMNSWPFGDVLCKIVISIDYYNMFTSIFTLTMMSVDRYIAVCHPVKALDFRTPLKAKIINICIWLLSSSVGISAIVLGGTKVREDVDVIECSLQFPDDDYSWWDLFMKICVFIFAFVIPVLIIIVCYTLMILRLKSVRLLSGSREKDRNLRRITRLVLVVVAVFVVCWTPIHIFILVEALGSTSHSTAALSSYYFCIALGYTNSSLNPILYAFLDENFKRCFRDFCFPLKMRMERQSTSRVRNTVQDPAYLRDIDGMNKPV
Chromatin remodeling regulator CECR2, sequence (Q9BXF3 whole entry): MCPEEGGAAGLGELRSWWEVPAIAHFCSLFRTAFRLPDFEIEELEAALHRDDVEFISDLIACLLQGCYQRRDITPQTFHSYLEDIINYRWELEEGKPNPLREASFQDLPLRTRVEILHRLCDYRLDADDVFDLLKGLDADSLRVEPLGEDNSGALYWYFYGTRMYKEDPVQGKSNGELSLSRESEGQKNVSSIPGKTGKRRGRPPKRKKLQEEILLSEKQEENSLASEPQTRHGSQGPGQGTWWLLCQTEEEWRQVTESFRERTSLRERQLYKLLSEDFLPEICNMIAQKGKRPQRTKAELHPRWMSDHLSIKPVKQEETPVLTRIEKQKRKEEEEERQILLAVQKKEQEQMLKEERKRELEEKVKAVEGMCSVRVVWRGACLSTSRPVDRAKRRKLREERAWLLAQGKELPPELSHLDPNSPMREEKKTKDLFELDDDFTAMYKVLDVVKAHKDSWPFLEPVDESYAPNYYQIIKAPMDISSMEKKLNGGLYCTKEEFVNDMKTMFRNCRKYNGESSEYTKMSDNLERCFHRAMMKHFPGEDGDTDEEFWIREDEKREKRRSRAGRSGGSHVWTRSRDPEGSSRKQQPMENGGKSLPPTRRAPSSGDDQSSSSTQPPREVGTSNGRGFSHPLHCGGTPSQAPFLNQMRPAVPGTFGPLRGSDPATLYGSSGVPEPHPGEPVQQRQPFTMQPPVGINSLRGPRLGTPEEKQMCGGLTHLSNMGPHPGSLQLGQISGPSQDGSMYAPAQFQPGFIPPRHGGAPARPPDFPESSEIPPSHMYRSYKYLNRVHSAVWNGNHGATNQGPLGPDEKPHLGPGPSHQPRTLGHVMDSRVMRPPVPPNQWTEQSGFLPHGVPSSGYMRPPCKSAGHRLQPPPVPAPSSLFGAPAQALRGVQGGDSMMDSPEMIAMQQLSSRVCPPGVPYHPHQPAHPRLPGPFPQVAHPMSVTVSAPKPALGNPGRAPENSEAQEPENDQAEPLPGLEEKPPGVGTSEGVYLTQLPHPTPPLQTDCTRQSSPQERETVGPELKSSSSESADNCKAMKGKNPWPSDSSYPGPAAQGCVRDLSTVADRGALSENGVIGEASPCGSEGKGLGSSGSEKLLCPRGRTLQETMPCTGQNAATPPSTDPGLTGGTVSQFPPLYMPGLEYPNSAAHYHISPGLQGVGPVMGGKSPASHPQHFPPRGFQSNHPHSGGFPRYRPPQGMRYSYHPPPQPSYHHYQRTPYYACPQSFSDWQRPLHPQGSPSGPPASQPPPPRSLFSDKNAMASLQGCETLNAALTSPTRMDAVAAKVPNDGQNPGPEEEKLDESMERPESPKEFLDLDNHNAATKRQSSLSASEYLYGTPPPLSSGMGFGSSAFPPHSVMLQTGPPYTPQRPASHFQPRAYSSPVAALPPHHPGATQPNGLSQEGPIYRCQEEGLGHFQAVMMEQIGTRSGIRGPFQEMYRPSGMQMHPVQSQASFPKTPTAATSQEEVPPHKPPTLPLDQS

| Compound | IC50 [1] [µM] | IC50 [2] [µM] | IC50 [3] [µM] | IC50 [4] [µM] | IC50 [5] [µM] | IC50 [6] [µM] | IC50 [7] [µM] | IC50 [8] [µM] | IC50 [9] [µM] | IC50 [10] [µM] | IC50 [11] [µM] | IC50 [12] [µM] | IC50 [13] [µM] | IC50 [14] [µM] | IC50 [15] [µM] | IC50 [16] [µM] | IC50 [17] [µM] | Kd [26] [µM] | Kd [27] [µM] | Kd [28] [µM] | other results |
| --- | --- | --- | --- | --- | --- | --- | --- | --- | --- | --- | --- | --- | --- | --- | --- | --- | --- | --- | --- | --- | --- |
| C/C=C/Cn1cc(-c2ccc(C(=O)N3CCOCC3)cc2)c2cc[nH]c2c1=O | 2.9 | 20 | 20 | 20 | 20 | 20 | 20 | 20 | 20 | 20 | 20 | 20 | 20 | 20 | 20 | 20 | 20 | > 10 | > 10 | > 10 | IC50 [18]: 20 µM; IC50 [19]: 20 µM; IC50 [20]: 20 µM; IC50 [21]: 20 µM; IC50 [22]: 20 µM; IC50 [23]: 20 µM; IC50 [24]: 20 µM; IC50 [25]: 20 µM; inhibition [29]: 0.8%; inhibition [30]: 6.5%; inhibition [31]: 0.9%; Activity [32]: -7%; Activity [33]: 6%; Activity [34]: 5% |
| C/C=C/Cn1cc(-c2cc(OC)c(C(C)(C)O)cc2OC)c2cc(C)[nH]c2c1=O | 4.3 | – | – | – | – | – | – | – | – | – | – | – | – | – | – | – | – | > 10 | 0.16 | > 10 | – |
| C/C=C/Cn1cc(-c2cc(OC)c(C(=O)N3CCOCC3)cc2OC)c2cc(C)[nH]c2c1=O | 2.4 | 2 | 2 | 2 | 2 | 2 | 2 | 2 | 2 | 2 | 2 | 2 | 2 | 2 | 2 | 2 | 2 | > 10 | > 10 | > 10 | IC50 [18]: 2 µM; IC50 [19]: 2 µM; IC50 [20]: 2 µM; IC50 [21]: 2 µM; IC50 [22]: 2 µM; IC50 [23]: 2 µM; IC50 [24]: 2 µM; IC50 [25]: 2 µM; inhibition [29]: 4%; inhibition [30]: 18.5%; inhibition [31]: 3%; Activity [32]: -12%; Activity [33]: 8%; Activity [34]: 9% |
| C/C=C/Cn1cc(-c2ccc(C(C)(C)O)cc2OC)c2cc[nH]c2c1=O | > 20 | 20 | 3.77 | 20 | 20 | 20 | 20 | 20 | 20 | 20 | 20 | 20 | 20 | 20 | 20 | 20 | 20 | 4.5 | 0.41 | > 10 | IC50 [18]: 20 µM; IC50 [19]: 20 µM; IC50 [20]: 20 µM; IC50 [21]: 20 µM; IC50 [22]: 20 µM; IC50 [23]: 20 µM; IC50 [24]: 20 µM; IC50 [25]: 20 µM; inhibition [29]: 4%; inhibition [30]: 19.5%; inhibition [31]: 7%; Activity [32]: -1%; Activity [33]: -1%; Activity [34]: 10% |
